Measurements as given in patent US20250051338A1, “TYK2 DEGRADERS AND USES THEREOF” (Kymera Therapeutics, Inc., priority 2021, published 2025).

Legend:
Assay type in all cases: cell-based
TYK2 [1] = target: T1, TYK2 (Homo sapiens, UniProt P29597); assay: TYK2 degradation MSD assay in EBV-B cells; set-up: endogenous in cells; host or cells: EBV-B cells
Description: (§1) Example 3. TYK2 Degradation MSD Assay in EBV-B, OCI-LY10, and Human PBMC Cells
(§2) Degradation of TYK2 in cells was quantitatively measured using Meso Scale Discovery (MSD) technology. EBV-B, OCI-LY10 or human PBMC cells were seeded in 96-well plates with a density of 0.4 million cells per well in 100 μl fresh media. Compounds were then added to the assay plates with a final top concentration of 1 to 10 μM in a 1:3 dilution series with total of 9 doses. The assay plates were then incubated for 4 to 24 hours at 37° C. under 5% CO2. The assay plates were then centrifuged for 5 minutes, and the cell pellets were treated with 100 μl/well RIPA lysis buffer (Boston Bioproducts, BP-115D) with protease and phosphatase inhibitors (Roche, 05892791001 and 04906837001). To prepare MSD assay plates (MSD, L15XA), the plates were coated with the capture antibody (Santa Cruz Biotechnology, SC-5271) in PBS, at 40 μl/well. The plates were then incubated overnight at 4° C., washed 3 times with 150 μl/well TBST buffer (Cell Signaling Technology, 9997S) and blocked with 150 μl/well blocking buffer (MSD, R93BA-4). Cell lysates were then added to MSD assay plates and the plates were incubated at room temperature for 1 hour. The plates were then washed 3 times with 150 μl/well TBST buffer and 25 μl/well primary detection antibody (Cell Signaling Technology, #9312). The assay plates were then incubated at room temperature for 1 hour, washed 3 times with 150 μl/well TBST buffer, and 25 μl/well secondary detection antibody, SULFO-TAG anti-rabbit antibody (MSD, R32AB-1) were added. The assay plates were then incubated at room temperature for 1 hour, washed 3 times with 150 μl/well TBST buffer, and 150 μl/well MSD reading buffer (MSD, R92TC-2) were added. The plates were then analyzed by an MSD reader. The data was analyzed by GraphPad Prism and the dose dependent TYK2 degradation was fit using the four-parameter inhibitor vs. response nonlinear regression. The DC50 data were measured and categorized into different levels in Table H. The compound with DC50 less than or equal to 1 nM is marked as A, with DC50 more than 1 nM and less than or equal to 10 nM is marked as B, with DC50 more than 10 nM and less than or equal to 100 nM is marked as C, and with DC50 more than 100 nM or not available is marked as D.

TYK2 [2] = target: T1, TYK2; assay: TYK2 degradation MSD assay in OCI-LY10 cells; set-up: endogenous in cells; host or cells: EBV-B cells; conditions: 4 to 24 hours incubation, read-out: TYK2 MSD DC50 rating in OCI-LY10
Description: as §1, §2

TYK2 [3] = target: T1, TYK2; assay: TYK2 degradation MSD assay in human PBMC cells; set-up: endogenous in cells; host or cells: human PBMC; conditions: 4 to 24 hours incubation, read-out: TYK2 MSD DC50 rating in human PBMC
Description: as §1, §2

[4] = 4 to 24 hours incubation, read-out: TYK2 MSD DC50 rating in EBV-B

T1 sequence (P29597 whole entry): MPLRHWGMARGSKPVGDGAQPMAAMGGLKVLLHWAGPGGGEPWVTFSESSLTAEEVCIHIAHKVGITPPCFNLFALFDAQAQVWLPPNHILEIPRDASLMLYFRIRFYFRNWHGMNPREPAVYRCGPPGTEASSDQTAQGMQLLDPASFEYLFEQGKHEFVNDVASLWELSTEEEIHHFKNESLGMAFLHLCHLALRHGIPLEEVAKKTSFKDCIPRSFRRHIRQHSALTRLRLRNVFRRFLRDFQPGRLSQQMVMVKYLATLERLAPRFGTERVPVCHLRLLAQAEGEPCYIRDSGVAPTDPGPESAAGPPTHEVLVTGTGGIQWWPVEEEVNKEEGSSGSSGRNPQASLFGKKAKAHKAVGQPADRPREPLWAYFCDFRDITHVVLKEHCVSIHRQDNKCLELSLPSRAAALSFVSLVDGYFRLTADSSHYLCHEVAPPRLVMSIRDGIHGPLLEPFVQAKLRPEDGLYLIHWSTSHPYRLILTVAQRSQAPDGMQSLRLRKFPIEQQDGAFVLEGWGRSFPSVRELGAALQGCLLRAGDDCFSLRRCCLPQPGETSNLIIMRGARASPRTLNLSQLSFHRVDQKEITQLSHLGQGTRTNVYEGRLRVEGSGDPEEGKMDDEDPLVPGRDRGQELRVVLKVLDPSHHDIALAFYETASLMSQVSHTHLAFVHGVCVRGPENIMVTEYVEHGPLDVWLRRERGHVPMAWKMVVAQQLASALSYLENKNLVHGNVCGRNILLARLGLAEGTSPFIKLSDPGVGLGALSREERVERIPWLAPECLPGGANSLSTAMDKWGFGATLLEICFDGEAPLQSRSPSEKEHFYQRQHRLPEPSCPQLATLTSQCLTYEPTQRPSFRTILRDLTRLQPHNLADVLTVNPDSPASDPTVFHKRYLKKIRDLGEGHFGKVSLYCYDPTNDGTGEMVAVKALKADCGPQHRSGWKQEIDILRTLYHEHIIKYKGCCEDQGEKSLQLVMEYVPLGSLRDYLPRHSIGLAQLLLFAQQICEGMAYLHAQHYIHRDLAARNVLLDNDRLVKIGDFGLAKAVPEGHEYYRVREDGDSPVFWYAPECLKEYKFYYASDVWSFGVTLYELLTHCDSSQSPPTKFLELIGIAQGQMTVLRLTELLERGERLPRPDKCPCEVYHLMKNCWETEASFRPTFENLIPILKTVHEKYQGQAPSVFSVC

Row | SMILES | DC50 (TYK2 [1]; [4]) | DC50 (TYK2 [2]) | DC50 (TYK2 [3]) | DC50 (TYK2 [1]; read-out: TYK2 MSD DC50 rating in EBV-B, 4 to 24 hours incubation)
1 | CNc1cc(-c2cnn(C3CCC(CN4CCC(CN(C)c5ccc6c(c5)n(C)c(=O)n6C5CCC(=O)NC5=O)CC4)CC3)c2)nn2c(C(=O)NC3C[C@@H]3F)cnc12 (stereo partly drawn) [Example K364] | > 100 nM | > 100 nM | > 100 nM | –
2 | Cn1c(=O)n(C2CCC(=O)NC2=O)c2ccc(CCCCCCNc3cc(Nc4cccn(-c5ccccn5)c4=O)nn4c(C(=O)N[C@@H]5C[C@@H]5F)cnc34)cc21 (stereo partly drawn) [Example K207] | > 100 nM | > 100 nM | > 100 nM | –
3 | Cn1c(=O)n(C2CCC(=O)NC2=O)c2cccc(CCOCCOCCOCCOCCOCCOCCNc3cc(Nc4cccn(-c5ccccn5)c4=O)nn4c(C(=O)N[C@@H]5C[C@@H]5F)cnc34)c21 (stereo partly drawn) [Example K213] | > 100 nM | > 100 nM | > 100 nM | –
4 | CNc1cc(N2CCc3c(CN4CCN(c5ccc(-c6ccc7c(c6)n(C)c(=O)n7C6CCC(=O)NC6=O)cc5)CC4)cccc32)nn2c(C(=O)N[C@@H]3C[C@@H]3F)cnc12 (mixture of isomers) [Example K575] | > 100 nM | 1 to 10 nM | > 100 nM | –
5 | CNc1cc(N2CCOc3c(-c4ccc(CN5CCN(c6ccc(-c7ccc8c(c7)n(C)c(=O)n8C7CCC(=O)NC7=O)cc6)CC5)cn4)cccc32)nn2c(C(=O)N[C@@H]3C[C@@H]3F)cnc12 (stereo partly drawn) [Example K491] | > 100 nM | 10 to 100 nM | > 100 nM | –
6 | CNc1cc(Nc2cccc(-c3ccc(CN4CCN(CC#Cc5cccc6c5n(C)c(=O)n6C5CCC(=O)NC5=O)CC4)cn3)c2)nn2c(C(=O)N[C@@H]3C[C@@H]3F)cnc12 (stereo partly drawn) [Example K432] | > 100 nM | < 1 nM | > 100 nM | –
7 | CNC(=O)c1cnc(Nc2ccc(CN3CCN(C(=O)CCc4ccc5c(c4)n(C)c(=O)n5C4CCC(=O)NC4=O)CC3)cn2)cc1Nc1cccc(-c2ncc(F)cn2)c1OC (stereo not drawn) [Example K143] | > 100 nM | > 100 nM | < 1 nM | –
8 | CNC(=O)c1cnc(Nc2ccc(CN(C)C3CCN(c4cccc5c4n(C)c(=O)n5C4CCC(=O)NC4=O)C3)cn2)cc1Nc1cccc(-c2ncc(F)cn2)c1OC (stereo not drawn) [Example K171] | < 1 nM | > 100 nM | > 100 nM | –
9 | CNC(=O)c1cnc(Nc2ccc(CN(C)C3CCN(c4cccc5c4n(C)c(=O)n5C4CCC(=O)NC4=O)CC3)cn2)cc1Nc1cccc(-c2ncc(F)cn2)c1OC (stereo not drawn) [Example K704] | < 1 nM | < 1 nM | > 100 nM | –
10 | CNc1cc(Nc2cccn(-c3ccc(C(=O)C4CCC([C@H]5CCN(c6ccc7c(c6)n(C)c(=O)n7C6CCC(=O)NC6=O)C5)CN4)cn3)c2=O)nn2c(C(=O)N[C@@H]3C[C@@H]3F)cnc12 (stereo partly drawn) [Example K425] | > 100 nM | > 100 nM | > 100 nM | –
11 | CC#Cc1nn(-c2cccc(F)c2OC)c2cc(Nc3ccc(CN(C)C4CCN(c5cccc6c5n(C)c(=O)n6C5CCC(=O)NC5=O)CC4)cn3)ncc12 (stereo not drawn) [Example K558] | > 100 nM | > 100 nM | > 100 nM | –
12 | CNc1cc(N2CCc3c(-c4ccc(CN5CCN(c6ccc(-c7ccc8c(c7)n(C)c(=O)n8C7CCC(=O)NC7=O)cc6)CC5)cn4)cccc32)nn2c(C(=O)N[C@@H]3C[C@@H]3F)cnc12 (stereo partly drawn) [Example K505] | 10 to 100 nM | 1 to 10 nM | > 100 nM | –
13 | CNc1cc(Nc2cccc(-c3ccc(CN4CCN(c5ccc(-c6ccc7c(c6)n(C)c(=O)n7C6CCC(=O)NC6=O)cc5)CC4)cn3)c2)nc2c(C(=O)N[C@@H]3C[C@@H]3F)cnn12 (stereo partly drawn) [Example K508] | 1 to 10 nM | < 1 nM | > 100 nM | –
14 | CNc1cc(N2CCc3c(-c4ccc(CN5CCN(c6cccc7c6n(C)c(=O)n7C6CCC(=O)NC6=O)CC5)cn4)cccc32)nn2c(C(=O)N[C@@H]3C[C@@H]3F)cnc12 (stereo partly drawn) [Example K637] | > 100 nM | 1 to 10 nM | > 100 nM | –
15 | CNC1=CC(Nc2cccc(-c3ccc(CN4CCN(CC5CCN(C(=O)c6ccc(Cl)c(N7CCC(=O)NC7=O)c6)CC5)CC4)cn3)c2)=NC2C(C(=O)N[C@@H]3C[C@@H]3F)=CN=C12 (stereo partly drawn) [Example K496] | > 100 nM | 1 to 10 nM | > 100 nM | –
16 | CNc1cc(Nc2cccc(C(=O)NCCCCCCc3ccc4c(c3)n(C)c(=O)n4C3CCC(=O)NC3=O)c2)nn2c(C(=O)N[C@@H]3C[C@@H]3F)cnc12 (stereo partly drawn) [Example K249] | > 100 nM | > 100 nM | > 100 nM | –
17 | CNc1cc(Nc2cccc(C3CCN(CCc4cccc5c4n(C)c(=O)n5C4CCC(=O)NC4=O)CC3)c2)nn2c(C(=O)N[C@@H]3C[C@@H]3F)cnc12 (stereo partly drawn) [Example K641] | > 100 nM | > 100 nM | > 100 nM | –
18 | CNC(=O)c1cnc(Nc2ccc(C(=O)N(C)C3CCN(c4cccc5c4n(C)c(=O)n5C4CCC(=O)NC4=O)CC3)cn2)cc1Nc1ccccc1OC (stereo not drawn) [Example K195] | 1 to 10 nM | > 100 nM | > 100 nM | –
19 | CNc1cc(N2CCc3c(-c4ccc(C(=O)N5CCC(CN6CCN(c7ccc(-c8ccc9c(c8)n(C)c(=O)n9C8CCC(=O)NC8=O)cc7)CC6)CC5)cn4)cccc32)nn2c(C(=O)N[C@@H]3C[C@@H]3F)cnc12 (stereo partly drawn) [Example K627] | > 100 nM | < 1 nM | > 100 nM | –
20 | CNc1cc(Nc2cccn(-c3ccc(C(=O)NCCCCCCCc4ccc5c(c4)n(C)c(=O)n5C4CCC(=O)NC4=O)cn3)c2=O)nn2c(C(=O)N[C@@H]3C[C@@H]3F)cnc12 (stereo partly drawn) [Example K260] | > 100 nM | > 100 nM | < 1 nM | –
21 | CNc1cc(Nc2cccc(CN3CC4(CCN(c5ccc(-c6ccc7c(c6)n(C)c(=O)n7C6CCC(=O)NC6=O)cn5)CC4)C3)c2)nn2c(C(=O)NC3CC3)cnc12 (stereo not drawn) [Example K586] | > 100 nM | 1 to 10 nM | > 100 nM | –
22 | Cn1c(=O)n(C2CCC(=O)NC2=O)c2ccc(C3CN(C4CCN(Cc5ccc(-c6cccc(Nc7ccc8ncc(C(=O)NC9CC9)n8n7)c6)nc5)CC4)C3)cc21 (stereo not drawn) [Example K405] | > 100 nM | > 100 nM | > 100 nM | –
23 | Cn1c(=O)n(C2CCC(=O)NC2=O)c2ccc(CCCCNC(=O)c3cccc(Nc4ccc5ncc(C(=O)N[C@@H]6C[C@@H]6F)n5n4)c3)cc21 (stereo partly drawn) [Example K328] | – | > 100 nM | > 100 nM | > 100 nM
24 | CNc1cc(Nc2cccc(N3CCC(CN4CCC(c5ccc(-c6ccc7c(c6)n(C)c(=O)n7C6CCC(=O)NC6=O)cc5)CC4)CC3)c2OC)nn2c(C(=O)N[C@@H]3C[C@@H]3F)cnc12 (stereo partly drawn) [Example K622] | > 100 nM | < 1 nM | > 100 nM | –
25 | CNc1cc(Nc2cccn(-c3ccc(C(=O)N4CC5(C4)CN(c4ncc(C#Cc6ccc7c(c6)n(C)c(=O)n7C6CCC(=O)NC6=O)cn4)C5)cn3)c2=O)nn2c(C(=O)NC3CC3F)cnc12 (stereo not drawn) [Example K382] | < 1 nM | > 100 nM | > 100 nM | –
26 | [2H]C([2H])([2H])NC(=O)c1nnc(Nc2ccc(CN3CCN(c4ccc5c(c4)n(C)c(=O)n5C4CCC(=O)NC4=O)CC3)cn2)cc1Nc1cccc(F)c1OC (stereo not drawn) [Example K711] | > 100 nM | > 100 nM | > 100 nM | –
27 | CNc1cc(Nc2cccc(-c3ccc(C(=O)N4CCN([C@H]5CC[C@H](c6ccc(-c7ccc8c(c7)n(C)c(=O)n8C7CCC(=O)NC7=O)cc6)CC5)CC4)cn3)c2)nn2c(C(=O)N[C@@H]3C[C@@H]3F)cnc12 (stereo partly drawn) [Example K632] | > 100 nM | < 1 nM | > 100 nM | –
28 | CNc1cc(Nc2cccn(-c3ccc(C(=O)N4CCN(c5ccc(-c6ccc7c(c6)n(C)c(=O)n7C6CCC(=O)NC6=O)cn5)C(=O)C4)cn3)c2=O)nn2c(C(=O)N[C@@H]3C[C@@H]3F)cnc12 (stereo partly drawn) [Example K378] | < 1 nM | > 100 nM | > 100 nM | –
29 | Cn1c(=O)n(C2CCC(=O)NC2=O)c2ccc(CN3CCC(Nc4cc(Nc5cccn(-c6ccccn6)c5=O)nn5c(C(=O)N[C@@H]6C[C@@H]6F)cnc45)CC3)cc21 (stereo partly drawn) [Example K367] | > 100 nM | > 100 nM | > 100 nM | –
30 | CNc1cc(Nc2ccccc2C(=O)NCCCCCCCCc2cccc3c2n(C)c(=O)n3C2CCC(=O)NC2=O)nn2c(C(=O)N[C@@H]3C[C@@H]3F)cnc12 (stereo partly drawn) [Example K258] | > 100 nM | > 100 nM | < 1 nM | –
